Measured values reported in PMC9774438, “Effects of Synthetic Short Cationic Antimicrobial Peptides on the Catalytic Activity of Myeloperoxidase, Reducing Its Oxidative Capacity” (Antioxidants, 2022).
Entries after “also recorded” stand apart in the source; their conditions may differ.

Legend:
myeloperoxidase (MPO) [1] = target: T1, myeloperoxidase (MPO) (Homo sapiens, UniProt P05164); test: MPO heme absorbance spectra (Compound II formation and decay, MPO turnover); type: biochemical; settings: 100 μM H2O2, 10 mM Na-phosphate pH 7.4
T1 construct: Native myeloperoxidase (MPO) was obtained from human leukocyte extract by successive chromatography on heparin-Sepharose and phenyl-agarose; from tissue; host or cells: human leukocyte extract
T1 sequence (P05164 279-745 limits assumed): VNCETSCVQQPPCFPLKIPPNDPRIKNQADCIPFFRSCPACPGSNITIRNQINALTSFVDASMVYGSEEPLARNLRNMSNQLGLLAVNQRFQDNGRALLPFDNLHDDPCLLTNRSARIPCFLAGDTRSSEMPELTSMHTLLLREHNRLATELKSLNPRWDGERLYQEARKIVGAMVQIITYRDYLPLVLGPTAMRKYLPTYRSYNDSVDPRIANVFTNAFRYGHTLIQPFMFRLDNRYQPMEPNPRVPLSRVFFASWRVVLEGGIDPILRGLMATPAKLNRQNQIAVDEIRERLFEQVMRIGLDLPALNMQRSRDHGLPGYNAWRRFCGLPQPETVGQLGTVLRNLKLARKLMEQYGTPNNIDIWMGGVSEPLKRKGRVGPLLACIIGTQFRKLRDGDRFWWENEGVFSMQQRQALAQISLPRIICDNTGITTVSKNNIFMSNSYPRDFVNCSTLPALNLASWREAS
T1 sequence (P05164 165-273 limits assumed): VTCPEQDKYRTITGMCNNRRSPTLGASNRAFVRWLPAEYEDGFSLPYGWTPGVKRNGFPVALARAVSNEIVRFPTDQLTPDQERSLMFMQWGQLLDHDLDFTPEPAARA
Description: Native myeloperoxidase (MPO) was obtained from human leukocyte extract by successive chromatography on heparin-Sepharose and phenyl-agarose followed by gel-filtration on a Sephacryl S-200 HR, as previously described. The Reinheit Zahl value (A430 nm/A280 nm) for the purified protein was 0.85. The MPO concentration was determined as the heme concentration measured spectrophotometrically at 430 nm with a molar extinction coefficient of 91,000 M^−1 cm^−1 [35].
Spectra of MPO were recorded on a Cary 50 Bio UV-Vis spectrophotometer (Varian, Mulgrave, Australia). Experiments were performed with Eppendorf UVette plastic UV/Vis cuvettes (Hamburg, Germany). An MPO concentration was 2 μM heme. MPO was mixed with CAMP in 10 mM Na-phosphate buffer (pH 7.4) supplemented with 0.2 mM DTPA. H2O2 was added as a microvolume of concentrated solution (100 μM final).
To elucidate the influence of CAMPs on MPO catalytic activity, we analyzed absorbance spectral changes for MPO activated by H2O2 in the presence of peptides. The spectra were obtained with 2 μM MPO heme and 100 μM H2O2 in 10 mM Na-phosphate buffer, pH 7.4. All reactions in these and further experiments were performed in buffers supplemented with 0.2 mM diethylenetriaminepentaacetic acid (DTPA) to sequester free transition metal ions to prevent tyrosine and cysteine autooxidation.
Figure 2 Time courses of spectral absorbance changes at 430 nm (indicative of MPO ground state) and 455 nm (indicative of Compound II) in the absence and presence of cationic antimicrobial peptides (CAMPs) in the system MPO/H2O2. The name of CAMP is given in parentheses after the panel designation (A–D). H2O2 (100 µM) was added to MPO (2 µM heme) or MPO preincubated with peptides at different peptide/heme molar ratios for 5 min in 10 mM Na-phosphate buffer, pH 7.4. Spectra were taken before and 0.25 min, 5 min, 10 min, and so on after adding H2O2. The initial absorbance values (before H2O2 addition) are shown as a red square marker. […]

myeloperoxidase (MPO) [2] = target: T1, myeloperoxidase (MPO); test: Electrospray mass spectrometry of dityrosine cross-linked peptide dimer; type: biochemical; settings: 40 μM peptide, 0.4 μM MPO heme, 50 μM H2O2, 10 mM Na-phosphate; ESI-MS positive mode
Description: Mass spectra were acquired using an Orbitrap Q Exactive HF-X mass spectrometer equipped with HESI source in the positive ion mode (Thermo Fisher Scientific, Waltham, MA, USA). Direct infusion syringe pump sampling was carried out with a […] Hamilton syringe at a flow rate of […]. The spray voltage was set at +3.5 kV, the sheath and auxiliary gas flow rate at 5 and 1, respectively; the S-lens RF level at 65; the capillary temperature at 250 °C. The resolution was set at 240,000, the AGC target at 1E6, and the maximum injection time at 50 ms. A summary spectrum was collected over 4 min and used for calculating S/N and measuring peak intensities. Before analysis, desalting of samples was carried out using C-18 ZIP-TIP (Millipore, Billerica, MA, USA), according to the manufacturer’s instructions. The eluate was mixed with 0.1% formic acid in DI water (18 MOhm) to a volume of 100 μL. The solutions prepared were used for direct infusion.
Additional proof for dityrosine formation upon incubation of Hm-AMP2 with H2O2-activated MPO was obtained by electrospray mass spectrometry which allowed the detection of a peptide product of the molecular weight of the dityrosine cross-linked peptide dimer. Dimerization of peptides via initial formation of a tyrosyl radical results in a 2 Da decrease in the double mass of the peptide to [2M − 2H]. […]

Sequence: EKRWRRLIFNYF [Hm-AMP2, synthetic cationic antimicrobial peptide …]
- effect on H2O2-induced formation and decay of MPO Compound II / MPO turnover (summary) (myeloperoxidase (MPO) [1]; 2 μM MPO heme, all concentrations): accelerated MPO turnover; also recorded: Acceleration of CII reduction to native MPO
- effect on Compound II decay to native MPO (myeloperoxidase (MPO) [1]; peptide/heme molar ratio up to 45:1, 2 μM MPO heme): accelerated Compound II decay to native MPO, with the effect being greater at a higher peptide/heme molar ratio
- increase of [2M − 2H + 3H]3+ dimer ion signal (m/z 1152.4) vs control (myeloperoxidase (MPO) [2]): 20 fold
